{"source": "patent US10278940B2", "about": "“Use of 2,5-dihydroxybenzene compounds and derivatives for the treatment of skin cancer” (AmDerma Pharmaceuticals, LLC, priority 2006, dated 2019)", "key": {"rat glioma C6 cells": {"tested_on": "rat glioma C6 cells", "experiment": "Rat glioma C6 cell proliferation, crystal violet staining", "format": "cell-based", "conditions": "48 h; for C6 cell proliferation: relative to control; for rat glioma cell proliferation (absorbance at 595 nm, % of control): 500 μM", "experimental": "The cell line used was rat glioma C6 cells. The cells were cultured as previously described (Cuevas P et al. Neural Res, 2005). The cells were cultured as adherent cells in Dulbecco's modified Eagle's medium, supplemented with 7.5% (v/v) of fetal bovine serum, 10 μg/ml of streptomycin and 10 units/ml of penicillin. The tumor cells were seeded in 24-well plates at a density of 10,000 cells/well, and were incubated at 37° C. in a humidified chamber with 5% CO2. Once adhered, the cells were treated or not (controls) with 2,5-dihydroxybenzoate at 100, 200, 500 or 1000 µM and they were allowed to proliferate for 48 h. After this time the glioma cell proliferation was evaluated by means of staining the fixed cells with crystal violet. The number of cells is proportional to the amount of retained dye, which was spectrophotometrically determined by measuring the absorbance at 595 nm once the dye was extracted from the cells.\n(§1) The cell line used was the C6 cell line and the experiment was carried out as described in Example 2. Once adhered, the cells were treated or not (controls) with increasing concentrations of 2,5-DHC (10, 25, 50 and 100 μM) and they were allowed to proliferate for 48 h. After this time the glioma cell proliferation was evaluated by means of staining the fixed cells with crystal violet. The number of cells is proportional to the amount of retained dye, which was determined spectrophotometrically by measuring absorbance at 595 nm once the dye was extracted from the cells.\nas §1, with “examples 2 and 3.” for “Example 2.”, “(5A-2HBS) (500 μM) or (2A-5HBS) (500” for “increasing concentrations of 2,5-DHC (10, 25, 50 and 100”, “measuring the” for “measuring”"}, "bFGF-induced fibrosis": {"tested_on": "bFGF-induced fibrosis", "experiment": "bFGF-induced fibrosis around subcutaneously implanted gelatin sponges", "format": "in vivo, Sprague-Dawley rats", "conditions": "100 μM in sponge with bFGF 10 μg/ml and heparin; subcutaneous; 7 days", "experimental": "Sterile gelatin sponges ([…]; Curaspon Dental, Clinimed Holding, Zwanenburg, The Netherlands) were subcutaneously implanted in the dorsal region of the neck in Sprague-Dawley rats after the induction of intraperitoneal anesthesia. The animals were split into two groups: group A, the sponges were moistened with 200 III of saline solution which contained 25 μg/ml of heparin and 10 μg/ml of basic FGF (bFGF); group B, the sponges were moistened in the same solution as in group A, but which solution further contained 2,5-dihydroxybenzoate (100 μM). After 7 days, the sponges and the surrounding subcutaneous fat were removed and histologically analyzed."}, "[1]": {"molecular_target": "T1, Fibroblast Growth Factor-1 (FGF-1) (Homo sapiens, UniProt P05230)", "T1 construct": "host or cells: added to Balb/c 3T3 fibroblast cultures", "T1 sequence (P05230 whole entry, species assumed)": "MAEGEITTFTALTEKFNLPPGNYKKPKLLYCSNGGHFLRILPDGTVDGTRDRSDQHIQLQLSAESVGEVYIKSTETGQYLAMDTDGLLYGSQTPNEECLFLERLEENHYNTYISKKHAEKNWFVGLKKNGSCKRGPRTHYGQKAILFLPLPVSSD", "experiment": "Crystal diffraction of FGF-1:compound complexes", "conditions": "electron density contoured at 1σ; acetoxyl groups conserved on binding", "experimental": "Based on the crystal diffraction of the FGF-1:2-acetoxy-5-hydroxybenzene sulfonic acid, FGF-1:5-acetoxy-2-hydroxybenzene sulfonic acid and FGF-1:2,5-diacetoxybenzene sulfonic acid complexes, the structures of the complexes were calculated and represented. FIGS. 13, 14 and 15, which show the surface of the dyed protein according to its electrostatic potential (light grey, negative charge; dark grey, positive charge; white, regions with no charge), show the manner in which 2-acetoxy-5-hydroxybenzene sulfonic acid, 5-acetoxy-2-hydroxybenzene sulfonic acid and 2,5-diacetoxybenzene sulfonic acid interact, respectively, with FGF-1."}, "[2]": {"molecular_target": "T1, Fibroblast Growth Factor-1 (FGF-1)", "experiment": "Mitogenesis induced by FGF-1 in quiescent Balb/c 3T3 fibroblast cultures", "format": "cell-based", "experimental": "The evaluated compounds were used in the form of potassium salt, except in the first case which used calcium salt. The experiments were carried out as described in Femandez-Tomero C et al. J Bioi Chern, 2003."}, "[3]": {"tested_on": "human prostate cancer PC-3 cells", "experiment": "Subcutaneous PC-3 prostate cancer cell implantation model in athymic mice", "format": "in vivo, athymic mice (Nu/Nu)", "conditions": "100 mg/kg daily i.p. for 15 days, vs carrier", "experimental": "5×10^6 human prostate cancer PC-3 cells were subcutaneously injected in male athymic mice (Nu/Nu) of 6-8 weeks of age and weighing 20-26 g. Ten days after the implantation of the tumor cells, the mice were randomly split into two groups: one of them received a daily injection of potassium 2,5-diacetoxybenzene sulfonate (DABS) by intraperitoneal route at a dose of 100 mg/kg dissolved in saline (0.9% NaCl) whereas the other group received a daily injection of carrier (saline). The treatments were administered for 15 days. The volumes of the tumors induced by the implantation of PC-3 cells were measured through the skin on alternating days using a Vernier caliper. The volume was calculated using the formula […], where D is the larger diameter in mm, d is the smaller diameter in mm and V is the volume in mm^3. At the end of treatment, the mice were sacrificed and the tumors were weighed."}, "[4]": {"tested_on": "subcutaneous gliomas (rat C6 glioma cells)", "experiment": "Apoptosis in sections of subcutaneous gliomas (hematoxylin and eosin)", "format": "in vivo, rats", "conditions": "100 mg/kg/day i.p. for 10 days; vs carrier", "text": "Tumor cells elude the programmed cell death process or apoptosis that normal cells experience. Apoptosis induction in tumor cells is one way to confront the development of a tumor. To evaluate the effect of potassium 2,5-[…] sulfonate (DABS) on tumor cell apoptosis, 6).lm thick sections of the subcutaneous gliomas described in example 4 were made. The sections were stained with hematoxylin and eosin and observed at a magnification of 313 times using immersion oil. In these conditions, cell apoptosis is shown by the existence of apoptotic bodies appearing as strongly chromogenic granules in the cell nucleus which is frequently fragmented."}, "[5]": {"tested_on": "subcutaneous gliomas (rat C6 glioma cells)", "experiment": "Progression of established subcutaneous C6 gliomas in rats", "format": "in vivo", "experimental": "Rat C6 glioma cells were cultured as previously described (Cuevas P et al. Neural Res, 2005). The C6 cells cultured to confluence in 75 cm^2 flasks were removed and implanted under the abdominal skin in anesthetized rats. The existence of a tumor in the implantation area was observed five days after the implantation of the tumor cells. Only the rats in which the existence of a tumor was observed were randomly assigned to be treated with daily intraperitoneal injections of 2,5-dihydroxybenzene sulfonate (DHBS; 100 mg/kg/day), 2,5-diacetoxybenzene sulfonate (DABS; 100 mg/kg/day) or the carrier (0.9% NaCl). After 10 days of treatment, the subcutaneous gliomas were removed and their volume was calculated according to the formula V=4/3π.(L/2).(A/2)^2 (in mm^3) where L is the larger diameter and A is the smaller diameter, both expressed in mm."}, "[6]": {"tested_on": "human lung cancer A549 cells", "experiment": "Human tumor cell proliferation, XTT viability method", "format": "cell-based", "conditions": "1-200 μM; 96 h", "experimental": "(§2) The cell lines used were the human prostate cancer PC-3 cells and human lung cancer A549 cells. 2000 cells were seeded per well in 96-well plates and they were allowed to adhere overnight. Then the cells were treated or not (controls) with potassium 2,5-diacetoxybenzene sulfonate (DABS) (1-200 μM) and they were allowed to proliferate for 96 h. After this time, the PC-3 and A549 cell proliferation was evaluated by determining the final number of cells by means of the viability method of yellow tetrazolium salt (XTT). The data were expressed as a percentage of the control (without treatment)."}, "[7]": {"tested_on": "human prostate cancer PC-3 cells", "experiment": "Human tumor cell proliferation, XTT viability method", "format": "cell-based", "conditions": "1-200 μM; 96 h", "experimental": "as §2"}}, "data": [{"molecule": "O=C(O)C=Cc1cc(O)ccc1O", "note": "[2,5-DHC, 3-(2,5-dihydroxyphenyl)-2-propenoic acid]", "values": [{"measurement": "C6 cell proliferation", "setting": "rat glioma C6 cells; 50 µM", "result": "reduced the C6 cell proliferation to less than half"}, {"measurement": "C6 cell proliferation", "setting": "rat glioma C6 cells; 100 μM", "result": "reduced to one tenth"}]}, {"molecule": "O=C([O-])c1cc(O)ccc1O.[K+]", "note": "[2,5-dihydroxybenzoate, potassium 2,5-dihydroxybenzoate]", "values": [{"measurement": "rat glioma C6 cell proliferation (absorbance at 595 nm)", "setting": "rat glioma C6 cells; 100, 200, 500 or 1000 μM", "result": "inhibited rat glioma C6 cell proliferation in a concentration-dependent manner"}, {"measurement": "statistical significance of the inhibition of C6 cell proliferation", "setting": "rat glioma C6 cells; at 500 and 1000 μM, vs control", "result": "statistically significant"}, {"measurement": "bFGF-induced fibrosis (fibroblasts in septa of connective tissue of adipose tissue)", "setting": "bFGF-induced fibrosis", "result": "reduces bFGF-induced fibrosis"}]}, {"molecule": "CC(=O)Oc1ccc(O)cc1S(=O)(=O)[O-].[K+]", "note": "[2A-5HBS, potassium 2-acetoxy-5-hydroxybenzene sulfonate]", "values": [{"measurement": "rat glioma cell proliferation (absorbance at 595 nm, % of control)", "setting": "rat glioma C6 cells", "result": "caused the inhibition of rat glioma cell proliferation"}, {"measurement": "binding site on FGF-1 in the co-crystal", "setting": "[1]", "result": "occupy a site that is very close to the one that has been described occupied by 2,5-dihydroxybenzene sulfonic acid"}]}, {"molecule": "CC(=O)Oc1ccc(O)c(S(=O)(=O)[O-])c1.[K+]", "note": "[5A-2HBS, potassium 5-acetoxy-2-hydroxybenzene sulfonate]", "values": [{"measurement": "mitogenesis induced by FGF-1", "setting": "[2]", "result": "inhibition of mitogenesis induced by FGF-1"}, {"measurement": "rat glioma cell proliferation (absorbance at 595 nm, % of control)", "setting": "rat glioma C6 cells", "result": "caused the inhibition of rat glioma cell proliferation"}, {"measurement": "binding site on FGF-1 in the co-crystal", "setting": "[1]", "result": "occupy a site that is very close to the one that has been described occupied by 2,5-dihydroxybenzene sulfonic acid"}]}, {"molecule": "CC(=O)Oc1ccc(OC(C)=O)c(S(=O)(=O)[O-])c1.[K+]", "note": "[DABS, potassium 2,5-diacetoxybenzene sulfonate]", "values": [{"measurement": "tumor growth (tumor volume measured through the skin)", "setting": "[3]; started 10 days after implantation", "result": "significantly reduced the human prostate cell tumor growth"}, {"measurement": "weight of the extracted tumor when treatment ended", "setting": "[3]", "result": "significant reduction of the weight of the extracted tumor"}, {"measurement": "mitogenesis induced by FGF-1", "setting": "[2]", "result": "inhibition of mitogenesis induced by FGF-1"}, {"measurement": "tumor cells in apoptosis in glioma sections", "setting": "[4]", "result": "a large number of tumor cells in apoptosis can be observed"}, {"measurement": "probability of being tumor-free (χ2 test)", "setting": "[5]; DABS group vs DHBS group, 100 mg/kg/day each", "result": "greater probability of being tumor-free"}, {"measurement": "rats tumor-free when treatment ended", "setting": "[5]; i.p. 100 mg/kg/day for 10 days, all rats had established tumors before treatment", "result": 4, "unit": "rats"}, {"measurement": "binding site on FGF-1 in the co-crystal", "setting": "[1]", "result": "occupy a site that is very close to the one that has been described occupied by 2,5-dihydroxybenzene sulfonic acid"}, {"measurement": "A549 cell proliferation (number of viable cells, % of control)", "setting": "[6]", "result": "significant inhibition"}, {"measurement": "PC-3 cell proliferation (number of viable cells, % of control)", "setting": "[7]", "result": "significant inhibition"}]}, {"molecule": "O=S(=O)([O-])c1cc(O)ccc1O.[K+]", "note": "[DHBS, potassium 2,5-dihydroxybenzene sulfonate, reference compound]", "values": [{"measurement": "mitogenesis induced by FGF-1", "setting": "[2]", "result": "inhibition of the mitogenesis induced by fibroblast growth factor-1"}, {"measurement": "average size (volume) of the subcutaneous gliomas", "setting": "[5]; i.p. 100 mg/kg/day for 10 days, started on day 5 after implantation, vs carrier", "result": "less than that of the rats treated with carrier"}]}, {"molecule": "calcium 2-acetoxy-5-hydroxybenzene sulfonate", "values": [{"measurement": "mitogenesis induced by FGF-1", "setting": "[2]", "result": "inhibition of mitogenesis induced by FGF-1"}]}]}
